Earlier results in paper PMC2574912 (Life sciences, 2008).

Tests used:
[1] = test system: AT-1 angiotensin receptor; conditions: presence of PCMB; ref Karamyan and Speth, 2007
AT2 receptor = conditions: PCMB; ref Karamyan, Speth unpublished observations
[2] = test system: non-AT1, non-AT2 binding site in rat brain; conditions: sulfhydryl reducing agents, ref Karamyan and Speth, 2007

Compound	Effect on AT1 receptor binding [1]	Effect on AT2 receptor binding (AT2 receptor)	Effect on binding of 125I-Ang II to the non-AT1, non-AT2 binding site [2]
O=C(O)c1cc[c]([Hg][Cl])cc1 [PCMB, parachloromercuribenzoate]	inactivated	not inhibited	–
O[C@@H](CS)[C@@H](O)CS (racemic) [dithiothreitol]	–	–	inhibit the binding
OCCS [β-mercaptoethanol]	–	–	inhibit the binding
